In patent publication US11542273B2, “Amide compound having bet proteolysis-inducing action and medicinal application thereof” (MITSUBISHI TANABE PHARMA CORPORATION, priority 2018, dated 2023):
pIC50: −log10 of the molar value.

Tests used:
Type in all cases: cell-based
[1] = system: human Burkitt lymphoma Raji cell; experiment: Cytotoxic action on cancer cells (WST-8, 96 hr); conditions: 96 hr culture
Summary of the method: (§1)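 Viability was read by WST-8 after 96 hr of compound exposure, normalised to untreated wells, with cells pre-cultured overnight in 10% FBS/RPMI1640 at 37 °C and 5% CO2. IC50 comes from a straight line between the two survival points enclosing 50%.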

[2] = system: human T-cell leukemia Jurkat cells; experiment: Cytotoxic action on cancer cells (WST-8, 96 hr); conditions: 96 hr culture
Summary of the method: as §1

[3] = system: human acute myeloid leukemia MV-4-11 cell; experiment: Cytotoxic action on cancer cells (WST-8, 96 hr); conditions: MV4-11, MV-4-11 cells, 96 hr culture
Summary of the method: as §1

[4] = system: human bladder cancer 5637 cell; experiment: Cytotoxic action on cancer cells (WST-8, 96 hr); conditions: 5637 cells, 96 hr culture
Summary of the method: as §1

[5] = system: human breast cancer ZR-75-1 cell; experiment: Cytotoxic action on cancer cells (WST-8, 96 hr); conditions: ZR-75-1 cells, 96 hr culture
Summary of the method: as §1

[6] = system: human castration-resistant prostate cancer PC-3 cell; experiment: Cytotoxic action on cancer cells (WST-8, 96 hr); conditions: PC-3 cells (printed P0-3 in table), 96 hr culture
Summary of the method: as §1

[7] = system: human colorectal cancer HCT116 cell; experiment: Cytotoxic action on cancer cells (WST-8, 96 hr); conditions: HCT-116, 96 hr culture
Summary of the method: as §1

[8] = system: human diffuse large B-cell lymphoma SU-DHL-6 cell; experiment: Cytotoxic action on cancer cells (WST-8, 96 hr); conditions: SU-DHL-6 cells, 96 hr culture
Summary of the method: as §1

[9] = system: human gastric cancer SNU-16 cell; experiment: Cytotoxic action on cancer cells (WST-8, 96 hr); conditions: SNU-16 cells, 96 hr culture
Summary of the method: as §1

[10] = system: human glioma U-87 MG cell; experiment: Cytotoxic action on cancer cells (WST-8, 96 hr); conditions: U-87 MG cells, 96 hr culture
Summary of the method: as §1

[11] = system: human liver cancer Hep G2 cell; experiment: Cytotoxic action on cancer cells (WST-8, 96 hr); conditions: HepG2, 96 hr culture
Summary of the method: as §1

[12] = system: human multiple myeloma MM.1S cell; experiment: Cytotoxic action on cancer cells (WST-8, 96 hr); conditions: MM1.S, MM.1S cells, 96 hr culture
Summary of the method: as §1

[13] = system: human non-small cell lung cancer NCI-H1975 cell; experiment: Cytotoxic action on cancer cells (WST-8, 96 hr); conditions: 96 hr culture
Summary of the method: as §1

[14] = system: human ovarian cancer A2780 cell; experiment: Cytotoxic action on cancer cells (WST-8, 96 hr); conditions: 96 hr culture
Summary of the method: as §1

[15] = system: human pancreatic cancer AsPC-1 cell; experiment: Cytotoxic action on cancer cells (WST-8, 96 hr); conditions: ASPC1, AsPC-1 cells, 96 hr culture
Summary of the method: as §1

[16] = system: human prostate cancer LNCaP cells; experiment: Cytotoxic action on cancer cells (WST-8, 96 hr); conditions: Homo sapiens, LNCaP, 96 h, read-out: LNCaP cytotoxic activity: IC50
Summary of the method: as §1

[17] = system: human small cell lung cancer NCI-H82 cell; experiment: Cytotoxic action on cancer cells (WST-8, 96 hr); conditions: 96 hr culture
Summary of the method: as §1

[18] = system: human triple negative breast cancer MDA-MB-231 cell; experiment: Cytotoxic action on cancer cells (WST-8, 96 hr); conditions: MDA-MB-231 cells, 96 hr culture
Summary of the method: as §1

[19] = system: human uterine sarcoma MES-SA cell; experiment: Cytotoxic action on cancer cells (WST-8, 96 hr); conditions: 96 hr culture
Summary of the method: as §1

BRD4 protein = BRD4 protein (Homo sapiens (Human), UniProt O60885); experiment: BRD4 protein degradation inducing action in cancer cells (immunofluorescence, Operetta); conditions: LNCaP cells, 6 hr treatment, fluorescence intensity
Summary of the method: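 DC50 = compound concentration reducing BRD4 immunofluorescence to 50% of untreated cells, interpolated between the two flanking concentrations. Treatment: LNCaP cells, 6 hr, 10% FBS/RPMI1640, 37° C. Cells were then fixed, permeabilized, stained with anti-BRD4 and Alexa Fluor 488 or 546 secondaries, and imaged.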

| Structure (SMILES) | pIC50 [1] | pIC50 [2] | pIC50 [3] | pIC50 [4] | pIC50 [5] | pIC50 [6] | pIC50 [7] | pIC50 [8] | pIC50 [9] | pIC50 [10] | pIC50 [11] | pIC50 [12] | pIC50 [13] | pIC50 [14] | pIC50 [15] | pIC50 [16] | pIC50 [17] | pIC50 [18] | pIC50 [19] | DC50 (BRD4 protein) [nM] |
| --- | --- | --- | --- | --- | --- | --- | --- | --- | --- | --- | --- | --- | --- | --- | --- | --- | --- | --- | --- | --- |
| COC(=O)C[C@@H]1N=C(c2ccc(-c3ccc(OCC(=O)N[C@H](C(=O)N4C[C@H](O)C[C@H]4C(=O)N[C@@H](C)c4ccc(-c5scnc5C)cc4)C(C)(C)C)c(C#N)c3)cc2)c2c(sc(C)c2C)-n2c(C)nnc21 [Example 9, methyl [(6S)-4-{3′-cyano-4′-[2-({(2S)-1-[(2S,4R)-4-hydroxy-2-({(1S)-1-[4-(4-methyl-1,3-thiazol-5-yl)phenyl]ethyl}carbamoyl)pyrrolidin-1-yl]-3,3-dimethyl-1-oxobutan-2-yl}amino)-2-oxoethoxy][1,1′-biphenyl]-4-yl}-2,3,9-trimethyl-6H-thieno[3,2-f][1,2,4]triazolo[4,3-a][1,4]diazepin-6-yl]acetate] | 8.72 | 8.92 | 10.82 | 9.35 | 9.02 | 9.00 | 8.33 | 9.24 | 8.52 | 8.04 | 7.48 | 9.85 | 8.43 | 9.80 | 7.52 | 9.80 | 7.82 | 8.24 | 8.59 | 0.15 |
| COC(=O)C[C@@H]1N=C(c2ccc(N3CC[C@@H](Oc4ccc5oc(C(=O)N[C@H](C(=O)N6C[C@H](O)C[C@H]6C(=O)N[C@@H](C)c6ccc(-c7scnc7C)cc6)C(C)(C)C)cc5c4)C3)cc2)c2c(sc(C)c2C)-n2c(C)nnc21 [Example 142, methyl [(6S)-4-{4-[(3R)-3-{[2-({(2S)-1-[(2S,4R)-4-hydroxy-2-({(1S)-1-[4-(4-methyl-1,3-thiazol-5-yl)phenyl]ethyl}carbamoyl)pyrrolidin-1-yl]-3,3-dimethyl-1-oxobutan-2-yl}carbamoyl)-1-benzofuran-5-yl]oxy}pyrrolidin-1-yl]phenyl}-2,3,9-trimethyl-6H-thieno[3,2-f][1,2,4]triazolo[4,3-a][1,4]diazepin-6-yl]acetate] | 9.15 | 9.44 | 10.39 | 9.47 | 9.31 | 9.47 | 8.41 | 9.03 | 9.26 | 8.40 | 8.13 | 9.64 | 8.74 | 9.57 | 8.24 | 9.52 | 8.23 | 9.01 | 8.80 | 0.72 |
| COC(=O)C[C@@H]1N=C(c2ccc(-c3ccc(C(=O)N[C@H](C(=O)N4C[C@H](O)C[C@H]4C(=O)N[C@@H](C)c4ccc(-c5scnc5C)cc4)C(C)(C)C)c(Cl)c3)cc2)c2c(sc(C)c2C)-n2c(C)nnc21 [Example 157, methyl {(6S)-4-[3′-chloro-4′-({(2S)-1-[(2S,4R)-4-hydroxy-2-({(1S)-1-[4-(4-methyl-1,3-thiazol-5-yl)phenyl]ethyl}carbamoyl)pyrrolidin-1-yl]-3,3-dimethyl-1-oxobutan-2-yl}carbamoyl)[1,1′-biphenyl]-4-yl]-2,3,9-trimethyl-6H-thieno[3,2-f][1,2,4]triazolo[4,3-a][1,4]diazepin-6-yl}acetate] | 9.23 | 9.34 | 10.54 | 9.48 | 8.70 | 9.39 | 8.35 | 9.41 | 8.92 | 7.74 | 7.92 | 10.09 | 8.66 | 9.82 | 7.64 | 9.40 | 8.35 | 8.74 | 8.77 | 0.38 |
